Data: US8895599B2, “Lipoprotein lipase-activating compositions comprising benzene derivates” (Otsuka Pharmaceutical Factory, Inc., priority 2008, dated 2014)
pEC50: −log10 of the molar value.

Legend:
[1] = system: human LPL mRNA; assay: Test for increase in LPL mRNA expression (luciferase assay, HTB-92/p387/p383 cell line); format: cell-based; conditions: 120 h, HTB-92/p387/p383 cells, 5 days; for maximal fold induction: Max. Ind. Value=Lt/Lc, maximum luciferase activity over control; for pEC50: concentration that increases LPL mRNA expression over the control by 50%
Source text: Pharmacological Test 1 Test for Increase in LPL mRNA Expression
A luciferase assay was employed to simply and quickly detect an increase in human LPL mRNA. The principle of the assay is as follows:
Luciferase emits light when reacted with luciferine (substrate). The expression of LPL mRNA is controlled by 5′-UTR and 3′-UTR (promoter regions) of the LPL gene. By introducing the promoter regions of the LPL gene into a commercially available plasmid (for example, that produced by Clonetics Corp.) to produce a plasmid (reporter plasmid) that stably expresses luciferase in human cells, such a plasmid expresses luciferase only under conditions in which LPL mRNA can increase. Therefore, when the substrate is introduced to the expression system and the amount of luciferase expression (luciferase activity) is quantified as the extent of chemiluminescence, the amount of LPL mRNA expression can be estimated.
The test herein was performed as follows: Using a plasmid for the luciferase assay manufactured by Clontech, wherein human LPL 5′-UTR (Enerback, S., et al., Mol. Cell. Biol. 12 (10) (1992): 4622-4633) and 3′-UTR (Wion, K. L., et al., Science 235 (1987): 4796, 1638-1641) had been inserted, human-derived liposarcoma cell line SW872 (ATCC Accession No. HTB-92) was transformed to prepare an HTB-92/p387/p383 cell line, which stably expresses luciferase.
This HTB-92/p387/p383 cell line was introduced into a 225 cm^2 culture flask furnished with a culture medium and cultured at 37° C. in the absence of CO2 until reaching confluence. Leibovitz's L-15 culture medium (containing 10% FBS, 1% GlutaMaxII, 10 μg/ml streptomycin, 1 μg/ml puromycin, 250 μg/ml hygromycin B) was used as the culture medium. After reaching confluence, the cells were collected, plated on 384-well plates to have 20000 cells/well, and cultured with 50 μl/well of the culture medium under the same conditions as above (37° C., absence of CO2). After 3 days of culturing, the culture medium was replaced by 50 μl/well phenol-red-free DMEM (containing 10% FBS, 1% GlutaMax, 10 U/ml penicillin, 10 μg/ml streptomycin, 1 μg/ml puromycin, 250 μg/ml hygromycin, 1 μM dexamethasone, 0.5 μM IBMX; differentiation medium), and the cells were cultured for 5 more days at 37° C. in the presence of CO2 to differentiate.
Furthermore, the culture medium was replaced by a 50 μl/well medium containing a compound of the invention (compound prepared in an Example) as a test substance wherein the compound had been conditioned with DMSO to a specific concentration selected from 10^−4 M to 3×10^−10M. The cells were cultured for 5 days at 37° C. in the presence of CO2.
After 5 days of culturing, a luciferase substrate solution (manufactured by Promega Corporation) was introduced to each well in an amount of 30 μl/well. The cells were left to stand 10 minutes at room temperature, and luciferase activities were measured by a luminometer (a microplate scintilltion counter; The Wallac MicroBeta Trilux, manufactured by Perkin Elmer, Inc.).
Cells that had been cultured and differentiated in a differentiation medium prepared by adding 0.1% DMSO to the above-mentioned DMEM medium (differentiation medium) not containing phenol red were used as a control (i.e., cultured and differentiated for 5 days and then stimulated for 5 days). The luciferase activity of these control cells were measured as above. The EC50 value (the concentration of test substance that can increase the amount of LPL mRNA expression over the control by 50%, unit: M) was calculated based on the straight line obtained by plotting the results of the tests performed using the test substances at varying concentrations. The maximum induction (Max. Ind. values) was calculated according to the following equation: Max. Ind. Value=Lt/Lc wherein Lt represents the maximum luciferase activity occurred in response to test substance stimulation; and Lc represents the value indicating the luciferase activity of the control.

[2] = Therapeutical effect on olive oil-induced triglyceride hyperlipidemia models; format: in vivo; conditions: once a day for one week, SD rats, 2 h after olive oil
Description: Test of Therapeutical Effect on Olive Oil-Induced Triglyceride Hyperlipidemia Models
To conduct this test, 6-week-old SD rats (purchased from Charles River Japan) were used.
According to the body weight of the test rats when they were 5 weeks old, the test rats were divided into test groups and a control group with 6 rats per group.
A predetermined amount of each compound prepared in the Examples was measured and placed in an agate mortar. While 5% aqueous gum arabic solution was gradually introduced to the mortar, the compound was uniformly ground and suspended. Test samples were prepared by further adding 5% aqueous gum arabic solution gradually. Subsequently, these test samples were subjected to ultrasonic washing for 10 minutes to homogenize. Test samples were prepared as and when necessary.
The rats of the test groups were orally administered with the compounds of the invention such that rats received the compounds in an amount of 10, 30, or 100 mg/kg. The compounds of the invention were formulated as 5% gum arabic suspensions as described above.
The rats of the control group were orally administered with 5% aqueous gum arabic solution (not containing the compounds of the invention) in an amount of 5 ml/kg body weight. Administration was conducted once a day continuously for one week at a specific time of day after the rats reached 6 weeks of age. This test was performed under non-fasting conditions (rats had free access to feed and water), and the rats were fasted after the final administration of the compounds or 5% aqueous gum arabic solution.
Two hours after the final administration, olive oil was orally administered to the rats from both groups in an amount of 3 ml/kg body weight.
Two hours after the olive oil administration, blood was collected from the abdominal aorta of the rats of the respective groups using a heparinized syringe. The plasma was centrifugally separated from the blood at a temperature of 4° C., and the triglyceride level of the plasma was measured. A Hitachi 7170 automatic analyzer was used as the measuring instrument. Using the values measured from the test groups and control group, the decrease (%) in plasma triglyceride level was calculated according to the following equation: Decrease (%) in plasma triglyceride concentration=(1−E/C)×100 wherein E represents the average plasma triglyceride level in each test group; and C represents the average plasma triglyceride level in the control group.

[3] = system: LPL; assay: Test for LPL activity-increasing effect in normal rats (skeletal muscle LPL activity); format: in vivo; conditions: every day for 1 week, SD rats, soleus muscle, 4 h after administration
Description: Test for LPL Activity-Increasing Effect in Normal Rats
6-week-old SD rats (purchased from Charles River Japan) were used as subjects. The rats were divided into groups according to body weight at the age of 5 weeks. The rats in each test group were orally administered with a 5% gum arabic suspension in an amount of 5 ml/kg of body weight, the suspension containing the test compound of the invention in such an amount that the dose of the compound of the invention became 30 mg/kg of body weight in one group and 100 mg/kg of body weight in another group. The rats in a control group were orally administered with a 5% gum arabic suspension (not containing the test compound of the invention) in an amount of 5 ml/kg of body weight. Each sample suspension was orally administered every day at a specific time of day for 1 week starting when the rats reached the age of 6 weeks.
Four hours after the administration of the sample suspension, skeletal muscle tissues of the rats were collected, then freeze-clamped and stored under liquid nitrogen. LPL activity in the skeletal muscle tissues was measured by the following method.
The soleus muscle was homogenized in a chilled solution of 0.05 mol/L NH4OH—NH4Cl buffer (pH 8.5) containing 0.5 U/mL heparin at 1 mL/100 mg of tissue wet weight. After standing on ice for 60 min with vigorous mixing at intervals of 15 min, the homogenate was centrifuged at 3000 rpm and 4° C. for 10 min and the supernatant was separated.
The substrate solution was prepared by mixing 2 μCi of glycerol tri[1-^14C]oleate, 0.133 g of unlabeled triolein, 0.9 mL of 1% Triton X-100, and 0.9 mL of 4% bovine serum albumin. in 0.2 mol/L Tris-HCl buffer (pH 8.6) and 10.2 mL of 0.2 mol/L Tris-HCl buffer (pH 8.6). The mixture was emulsified by sonication on ice for 3 min.
In a glass test tube, 0.1 mL of the tissue extract, 0.05 mL of heat-inactivated rat serum and 0.15 mL of 4% bovine serum albumin in 0.2 mol/L Tris-HCl buffer (pH 7.4) were mixed. Enzyme reaction was started by adding 0.2 mL of the substrate solution and was carried out for 30 min. at 37° C.
The reaction was stopped by addition of 2 mL of 1.5 mol/L H2SO4/2-propanol (1:40, v/v), and 1 mL of distilled water and 3 mL of hexane were added into the test tube. After vigorously shaking for 10 min. at room temperature, the test tube was centrifuged for 10 min. at 3000 rpm.
The upper layer (3.5 mL) was collected in a new test tube and mixed with 1 mL of 0.1 mol/L KOH.
The test tube was vigorously shaken for 10 min. at room temperature and then centrifuged for 10 min. at 3000 rpm.
After removing the upper layer, 1 mL of the lower layer (water phase) was transferred into a vial for counting, neutralized with 50 μL of 1.3 mol/L HCl and mixed with 4 mL of scintillator. The radioactivity was measured using a liquid scintillation counter.
The LPL activity increase (%) was calculated from the measured values of LPL activity in the control group and test groups according to the following formula: LPL activity increase (%)=(Test group average value)/(Control group average value)×100−100

Structure (SMILES)	melting point [°C]	maximal fold induction [1]	pEC50 [1]	Decrease in plasma triglyceride level (%) ([2]; 10 mg/kg oral)	Decrease in plasma triglyceride level (%) ([2]; 30 mg/kg oral)	Decrease in plasma triglyceride level (%) ([2]; 100 mg/kg oral)	Increase of skeletal muscle LPL activity compared to control (%) ([3]; 30 mg/kg oral)	Increase of skeletal muscle LPL activity compared to control (%) ([3]; 100 mg/kg oral)
COc1cc(-c2cn3ccccc3n2)ccc1OCc1ccccc1F [Example 4]	115 to 117	1.7	5.70	–	–	–	–	–
COc1cc(-c2cn3ccccc3n2)ccc1OCc1cccc(F)c1 [Example 5]	117 to 118	1.6	5.44	–	–	–	–	–
COc1cc(-c2cn3ccsc3n2)ccc1OCc1ccc(Cl)cc1 [Example 23, 6-[4-(4-chlorobenzyloxy)-3-methoxyphenyl]imidazo[2,1-b]thiazole]	126 to 128	–	–	66	78	77	18	15
COc1cc(-c2cn3ccccc3n2)ccc1OCc1ccc(C#N)cc1 [Example 30]	175 to 177	1.9	5.17	–	–	–	22	31
COc1cc(-c2cn3cccc(OCc4ccccc4)c3n2)ccc1OCc1ccc(Br)cc1 [Example 85]	168 to 169	–	–	–	–	–	9	36
c1ccc(-c2cc3cc(-c4cn5ccccc5n4)ccc3o2)cc1 [Example 103]	239.5 to 241	1.9	5.13	–	–	–	–	–
COc1cc(-c2cnc3ccccn23)ccc1OCc1ccc(Cl)cc1 [Example 109]	–	1.5	5.52	–	–	–	–	–
COc1cc(-c2cn3ccccc3n2)ccc1Oc1ccc(Cl)cc1 [Example 114]	148 to 149	1.5	5.14	–	–	–	–	–
COc1cc(-c2cnc3ccccn23)ccc1OCc1ccc(Cl)c(Cl)c1 [Example 117]	–	2.2	5.48	–	–	–	–	–
COc1cc(-c2cnc3ccccn23)ccc1O[C@H](C)c1ccccc1 [Example 132]	–	1.7	5.21	–	–	–	–	–
COc1cc(-c2cn3ccccc3n2)ccc1O[C@@H](C)c1ccccc1 [Example 134]	149 to 150	1.7	5.19	–	–	–	–	–
COc1cc(-c2cnc3ccccn23)ccc1OC(C)c1ccccc1 (stereo not drawn) [Example 135]	113 to 113.5	1.8	5.28	–	–	–	–	–
COc1cc(-c2cn3ccccc3n2)ccc1Oc1ccccc1 [Example 138]	95 to 97	2	5.70	–	–	–	–	–
CCO[PH](=O)OCc1ccc(C(=O)Nc2ccc(Br)cc2C#N)cc1 (stereo not drawn) [ethyl 4-[(4-bromo-2-cyanophenyl)carbamoyl]benzyl phosphonate, reference compound]	–	~1.2	–	–	–	–	–	–
